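Results reflect a 48-hour exposure of cells in 96-well plates to compound at five concentrations. TGI is the concentration that stops growth completely.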
Tests used:
Experiment in all cases: DTP human tumour cell line panel, 48 h
786-0 renal = system: 786-0 renal
A498 renal = system: A498 renal
A549 NSCLC = system: A549 NSCLC
ACHN renal = system: ACHN renal
BT-549 breast = system: BT-549 breast
CCRF-CEM leukemia = system: CCRF-CEM leukemia
COLO 205 colon = system: COLO 205 colon
DU-145 prostate = system: DU-145 prostate
EKVX NSCLC = system: EKVX NSCLC
HCC-2998 colon = system: HCC-2998 colon
HCT-116 colon = system: HCT-116 colon
HCT-15 colon = system: HCT-15 colon
HL-60(TB) leukemia = system: HL-60(TB) leukemia
HOP-62 NSCLC = system: HOP-62 NSCLC
HOP-92 NSCLC = system: HOP-92 NSCLC
HS 578T breast = system: HS 578T breast
HT29 colon = system: HT29 colon
IGROV1 ovarian = system: IGROV1 ovarian
K-562 leukemia = system: K-562 leukemia
KM12 colon = system: KM12 colon
LOX IMVI melanoma = system: LOX IMVI melanoma
M14 melanoma = system: M14 melanoma
MALME-3M melanoma = system: MALME-3M melanoma
MCF7 breast = system: MCF7 breast
MDA-MB-231 breast = system: MDA-MB-231 breast
MDA-N = system: MDA-N
MOLT-4 leukemia = system: MOLT-4 leukemia
NCI-H226 lung = system: NCI-H226 lung
NCI-H23 lung = system: NCI-H23 lung
NCI-H460 lung = system: NCI-H460 lung
NCI-H522 lung = system: NCI-H522 lung
NCI/ADR-RES ovarian = system: NCI/ADR-RES ovarian
OVCAR-3 ovarian = system: OVCAR-3 ovarian
OVCAR-4 ovarian = system: OVCAR-4 ovarian
OVCAR-5 ovarian = system: OVCAR-5 ovarian
OVCAR-8 ovarian = system: OVCAR-8 ovarian
PC-3 prostate = system: PC-3 prostate
RPMI-8226 leukemia = system: RPMI-8226 leukemia
RXF 393 renal = system: RXF 393 renal
SF-268 CNS = system: SF-268 CNS
SF-295 CNS = system: SF-295 CNS
SF-539 CNS = system: SF-539 CNS
SK-MEL-28 melanoma = system: SK-MEL-28 melanoma
SK-MEL-5 melanoma = system: SK-MEL-5 melanoma
SK-OV-3 ovarian = system: SK-OV-3 ovarian
SN12C renal = system: SN12C renal
SNB-19 CNS = system: SNB-19 CNS
SNB-75 CNS = system: SNB-75 CNS
SR leukemia = system: SR leukemia
SW-620 colon = system: SW-620 colon
T-47D breast = system: T-47D breast
TK-10 renal = system: TK-10 renal
U251 CNS = system: U251 CNS
UACC-257 melanoma = system: UACC-257 melanoma
UACC-62 melanoma = system: UACC-62 melanoma
UO-31 renal = system: UO-31 renal
CAKI-1 renal = system: CAKI-1 renal
MDA-MB-435 = system: MDA-MB-435
SK-MEL-2 melanoma = system: SK-MEL-2 melanoma

SMILES: Cc1[nH]c2nccn2c(=O)c1CCCl
- TGI (786-0 renal): 64.6 µM
- TGI (A498 renal): 61.8 µM
- TGI (A549 NSCLC): > 100 µM
- TGI (ACHN renal): 55 µM
- TGI (BT-549 breast): 62.5 µM
- TGI (CCRF-CEM leukemia): 85.4 µM
- TGI (COLO 205 colon): > 100 µM
- TGI (DU-145 prostate): 66.7 µM
- TGI (EKVX NSCLC): > 100 µM
- TGI (HCC-2998 colon): 34.1 µM
- TGI (HCT-116 colon): 32.3 µM
- TGI (HCT-15 colon): > 100 µM
- TGI (HL-60(TB) leukemia): 57.2 µM
- TGI (HOP-62 NSCLC): 60 µM
- TGI (HOP-92 NSCLC): 66.1 µM
- TGI (HS 578T breast): > 100 µM
- TGI (HT29 colon): > 100 µM
- TGI (IGROV1 ovarian): 61.8 µM
- TGI (K-562 leukemia): 93.5 µM
- TGI (KM12 colon): 42.2 µM
- TGI (LOX IMVI melanoma): 33.6 µM
- TGI (M14 melanoma): > 100 µM
- TGI (MALME-3M melanoma): 41.3 µM
- TGI (MCF7 breast): > 100 µM
- TGI (MDA-MB-231 breast): > 100 µM
- TGI (MDA-N): 46.6 µM
- TGI (MOLT-4 leukemia): 52.9 µM
- TGI (NCI-H226 lung): > 100 µM
- TGI (NCI-H23 lung): 41.6 µM
- TGI (NCI-H460 lung): 49.5 µM
- TGI (NCI-H522 lung): 49.9 µM
- TGI (NCI/ADR-RES ovarian): 58.1 µM
- TGI (OVCAR-3 ovarian): 62.1 µM
- TGI (OVCAR-4 ovarian): 40 µM
- TGI (OVCAR-5 ovarian): > 100 µM
- TGI (OVCAR-8 ovarian): 87.6 µM
- TGI (PC-3 prostate): > 100 µM
- TGI (RPMI-8226 leukemia): 62.9 µM
- TGI (RXF 393 renal): 38.9 µM
- TGI (SF-268 CNS): > 100 µM
- TGI (SF-295 CNS): > 100 µM
- TGI (SF-539 CNS): 36.6 µM
- TGI (SK-MEL-28 melanoma): > 100 µM
- TGI (SK-MEL-5 melanoma): 31.3 µM
- TGI (SK-OV-3 ovarian): 63 µM
- TGI (SN12C renal): 45.4 µM
- TGI (SNB-19 CNS): > 100 µM
- TGI (SNB-75 CNS): > 100 µM
- TGI (SR leukemia): 90.7 µM
- TGI (SW-620 colon): 50.8 µM
- TGI (T-47D breast): > 100 µM
- TGI (TK-10 renal): 96.7 µM
- TGI (U251 CNS): 43.8 µM
- TGI (UACC-257 melanoma): > 100 µM
- TGI (UACC-62 melanoma): 53.7 µM
- TGI (UO-31 renal): 91.4 µM

SMILES: O=C(NNC(=O)c1ccccc1O)c1ccccc1O
- TGI (786-0 renal): > 100 µM
- TGI (A498 renal): > 100 µM
- TGI (A549 NSCLC): > 100 µM
- TGI (ACHN renal): > 100 µM
- TGI (BT-549 breast): > 100 µM
- TGI (CAKI-1 renal): > 100 µM
- TGI (CCRF-CEM leukemia): > 100 µM
- TGI (COLO 205 colon): > 38.9 µM
- TGI (DU-145 prostate): > 100 µM
- TGI (EKVX NSCLC): > 100 µM
- TGI (HCT-116 colon): > 100 µM
- TGI (HCT-15 colon): > 100 µM
- TGI (HL-60(TB) leukemia): 0.944 µM
- TGI (HOP-62 NSCLC): > 100 µM
- TGI (HOP-92 NSCLC): > 100 µM
- TGI (HT29 colon): > 100 µM
- TGI (IGROV1 ovarian): > 34.8 µM
- TGI (K-562 leukemia): > 100 µM
- TGI (KM12 colon): > 100 µM
- TGI (LOX IMVI melanoma): > 100 µM
- TGI (M14 melanoma): 25.4 µM
- TGI (MALME-3M melanoma): > 100 µM
- TGI (MCF7 breast): > 100 µM
- TGI (MDA-MB-231 breast): > 100 µM
- TGI (MDA-MB-435): > 100 µM
- TGI (MDA-N): > 100 µM
- TGI (MOLT-4 leukemia): > 91.7 µM
- TGI (NCI-H226 lung): > 100 µM
- TGI (NCI-H23 lung): > 100 µM
- TGI (NCI-H460 lung): > 100 µM
- TGI (NCI-H522 lung): 3.6 µM
- TGI (NCI/ADR-RES ovarian): > 100 µM
- TGI (OVCAR-3 ovarian): > 100 µM
- TGI (OVCAR-5 ovarian): > 100 µM
- TGI (OVCAR-8 ovarian): > 100 µM
- TGI (PC-3 prostate): > 100 µM
- TGI (RPMI-8226 leukemia): > 100 µM
- TGI (SF-268 CNS): > 58.4 µM
- TGI (SF-295 CNS): > 100 µM
- TGI (SF-539 CNS): 6.16 µM
- TGI (SK-MEL-2 melanoma): > 100 µM
- TGI (SK-MEL-28 melanoma): > 100 µM
- TGI (SK-MEL-5 melanoma): > 34.5 µM
- TGI (SK-OV-3 ovarian): > 100 µM
- TGI (SN12C renal): > 100 µM
- TGI (SNB-19 CNS): > 100 µM
- TGI (SR leukemia): > 31.1 µM
- TGI (SW-620 colon): > 100 µM
- TGI (T-47D breast): > 78.4 µM
- TGI (TK-10 renal): > 100 µM
- TGI (U251 CNS): > 100 µM
- TGI (UACC-62 melanoma): > 100 µM
- TGI (UO-31 renal): > 100 µM

SMILES: O=CNCCCN1CCN(CCCNC=O)CC1
- TGI (786-0 renal): > 100 µM
- TGI (A498 renal): > 100 µM
- TGI (A549 NSCLC): > 100 µM
- TGI (ACHN renal): > 100 µM
- TGI (BT-549 breast): > 100 µM
- TGI (CAKI-1 renal): > 100 µM
- TGI (CCRF-CEM leukemia): > 100 µM
- TGI (COLO 205 colon): > 100 µM
- TGI (DU-145 prostate): > 100 µM
- TGI (EKVX NSCLC): > 100 µM
- TGI (HCC-2998 colon): > 100 µM
- TGI (HCT-116 colon): > 100 µM
- TGI (HCT-15 colon): > 100 µM
- TGI (HL-60(TB) leukemia): > 100 µM
- TGI (HOP-62 NSCLC): > 100 µM
- TGI (HOP-92 NSCLC): > 100 µM
- TGI (HT29 colon): > 100 µM
- TGI (IGROV1 ovarian): > 100 µM
- TGI (K-562 leukemia): > 100 µM
- TGI (KM12 colon): > 100 µM
- TGI (LOX IMVI melanoma): > 100 µM
- TGI (M14 melanoma): > 100 µM
- TGI (MCF7 breast): > 100 µM
- TGI (MDA-MB-231 breast): > 100 µM
- TGI (MDA-MB-435): > 100 µM
- TGI (MDA-N): > 100 µM
- TGI (MOLT-4 leukemia): > 100 µM
- TGI (NCI-H226 lung): > 100 µM
- TGI (NCI-H23 lung): > 100 µM
- TGI (NCI-H522 lung): 4.07 µM
- TGI (NCI/ADR-RES ovarian): > 100 µM
- TGI (OVCAR-3 ovarian): > 100 µM
- TGI (OVCAR-4 ovarian): > 100 µM
- TGI (OVCAR-5 ovarian): > 100 µM
- TGI (OVCAR-8 ovarian): > 100 µM
- TGI (PC-3 prostate): > 100 µM
- TGI (RPMI-8226 leukemia): > 100 µM
- TGI (SF-268 CNS): 9.78 µM
- TGI (SF-295 CNS): > 100 µM
- TGI (SF-539 CNS): > 100 µM
- TGI (SK-MEL-2 melanoma): > 100 µM
- TGI (SK-MEL-28 melanoma): > 100 µM
- TGI (SK-MEL-5 melanoma): > 100 µM
- TGI (SK-OV-3 ovarian): > 100 µM
- TGI (SN12C renal): > 100 µM
- TGI (SNB-19 CNS): > 100 µM
- TGI (SR leukemia): > 100 µM
- TGI (SW-620 colon): > 100 µM
- TGI (T-47D breast): > 100 µM
- TGI (TK-10 renal): > 100 µM
- TGI (U251 CNS): > 100 µM
- TGI (UACC-257 melanoma): > 100 µM
- TGI (UACC-62 melanoma): > 100 µM
- TGI (UO-31 renal): > 100 µM

Reference: PubChem BioAssay (NCI)
